Laboratory results published in ChEMBL document CHEMBL1201862, “PubChem BioAssay data set” (2004).
The source made the active and inactive calls.

What was measured:
[1] = HeLa cell cytotoxicity, dose response, cytotoxicity control, 24 h, plate reader, powder samples, set 3 (AID 651864); assay type: functional, cell-based
[2] = biological target: T1, Voltage-gated N-type calcium channel alpha-1B subunit/Amyloid beta A4 precursor protein-binding family A member 1 (Homo sapiens, UniProt Q00975+Q02410); assay type: protein assay
[3] = biological target: Glucose-6-phosphate 1-dehydrogenase (Homo sapiens, UniProt P11413); experiment: human G6PD enzyme inhibitors, dose response, selectivity assay for P. falciparum G6PD inhibitor project, biochemical, fluorescence (AID 504792); assay type: functional
[4] = biological target: T2, Sentrin-specific protease 8 (Homo sapiens, UniProt Q96LD8); assay type: functional
T2 sequence (Q96LD8 whole entry): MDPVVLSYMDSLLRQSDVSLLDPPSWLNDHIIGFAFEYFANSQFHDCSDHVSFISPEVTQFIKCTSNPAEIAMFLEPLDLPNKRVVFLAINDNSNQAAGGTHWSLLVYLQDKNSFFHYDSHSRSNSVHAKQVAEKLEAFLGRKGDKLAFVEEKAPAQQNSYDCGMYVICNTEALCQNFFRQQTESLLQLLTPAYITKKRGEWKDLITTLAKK

fMet-Leu-Phe receptor = fMet-Leu-Phe receptor (Homo sapiens, UniProt P21462); experiment: FPR ligands, dose response (AID 519); assay type: functional
[5] = biological target: T1, Voltage-gated N-type calcium channel alpha-1B subunit/Amyloid beta A4 precursor protein-binding family A member 1; assay type: protein assay; remark: listed apart in the source
[6] = biological target: T2, Sentrin-specific protease 8; assay type: functional; remark: listed apart in the source
[7] = HepG2 cell cytotoxicity, dose response, cytotoxicity control, ATP luminescence, cherry-pick, activator set 2 (AID 1053143); assay type: functional, cell-based
[8] = biological target: Matrix metalloproteinase-14 (Homo sapiens, UniProt P50281); experiment: Dose Response confirmation of uHTS hits for a small molecule inhibitors of MT1-MMP activation in a fluorescence assay set 1.; assay type: functional
[9] = A549 cell cytotoxicity, dose response, cytotoxicity control, plate reader, cherry-pick, antagonist series (AID 743412); assay type: functional, cell-based
[10] = HepG2 cell cytotoxicity, dose response, cytotoxicity control, plate reader, cherry-pick, antagonist series (AID 743416); assay type: functional, cell-based
cells [11] = assay type: functional, cell-based
BJ [12] = experiment: cells; assay type: functional, cell-based; details: Homo sapiens
[13] = HEK293 cell cytotoxicity, dose response, cytotoxicity control, plate reader, cherry-picked samples (AID 743446); assay type: functional, cell-based
[14] = MC4R antagonists, dose response, counter-screen for LGR2 antagonist project, cell-based, plate reader, cherry pick (AID 743444); assay type: functional;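 further: transfected HEK 293 cells stimulated with alpha-MSH peptide; potency of inhibitors of the alpha-MSH evoked signal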
[15] = cytotoxicity toward DRD oncogenic fibroblasts, dose response, cell-based, non-viral oncogenic, luminescence (AID 1934); assay type: functional; details: Homo sapiens
cells [16] = assay type: functional, cell-based; remark: listed apart in the source
BJ [17] = experiment: cytotoxicity toward BJ-TERT-LT-ST fibroblasts, dose response, cell-based, RAS-independent, luminescence (AID 1935); assay type: functional; details: Homo sapiens;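 further: BJ fibroblasts immortalized with TERT plus LT and ST oncogenes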
[18] = biological target: Luciferin 4-monooxygenase (Photinus pyralis, UniProt P08659); experiment: firefly luciferase enzyme inhibitors, dose response, biochemical, luminescence (AID 1891)
[19] = Luminescence Cell-Based Dose Confirmation HTS to Identify Inhibitors of Platelet Dense Granule Release. [Related pubchem assays: 1663 (Primary HTS), 1678 (Summary of Project)]; assay type: functional
INS1 = experiment: beta cell apoptosis inhibitors, cytokine rescue, dose response, luminescence, retest (AID 449756); assay type: functional, cell-based; details: Rattus norvegicus;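 further: cell death triggered by IL-1 beta plus TNF-alpha plus IFN-gamma mixture; protective hits raise ATP signal compared with cytokine alone wells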
BJ [20] = experiment: cytotoxicity toward BJ-TERT fibroblasts, dose response, cell-based, RAS-independent, luminescence (AID 1933); assay type: functional; details: Homo sapiens
[21] = LGR2 antagonists, dose response, cell-based, HEK293, CRE-luciferase reporter, cherry pick, set 2 (AID 743343); assay type: functional;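 further: transfected cells were stimulated with diluted bursicon conditioned medium after compound addition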
[22] = biological target: ATP-dependent translocase ABCB1 (Homo sapiens, UniProt P08183); experiment: ABCB1 efflux pump inhibitor potency, dose response, Jurkat-DNR cells, JC-1, flow cytometry (AID 1689); assay type: functional
[23] = biological target: Broad substrate specificity ATP-binding cassette transporter ABCG2 (Homo sapiens, UniProt Q9UNQ0); experiment: ABCG2 efflux pump inhibitors, dose response, Ig-MXP3 cells, flow cytometry (AID 1690); assay type: functional
[24] = biological target: Long-chain-fatty-acid--AMP ligase FadD28 (Mycobacterium tuberculosis, UniProt P9WQ59); experiment: Fluorescence polarization aasay to screen for inhibitors that compete for the binding of FadD28 to a bisubstrate Measured in Biochemical System Using Plate Reader - 2147-01_Inhibitor_Dose_CherryPick_Activity.; assay type: functional, Mycobacterium tuberculosis H37Rv
[25] = control 3'UTR Renilla luciferase suppression, dose response, counter-screen for Shn3 inhibitor project, cell-based, Clone20-Shn3RL, cherry-picked (AID 624133); assay type: functional
[26] = Shn3 3'UTR reporter inhibitors, dose response, cell-based, Clone20 osteoblasts, firefly luciferase, cherry-picked (AID 624132); assay type: functional;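 further: firefly luciferase luminescence from reporter carrying the Shn3 3'UTR in osteoblasts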
[27] = HepG2 cell cytotoxicity, dose response, cytotoxicity control for Shn3 inhibitor project, CellTiter-Glo, cherry-picked (AID 624134); assay type: functional, cell-based
[28] = reduction of Shn3 3'UTR firefly luciferase signal, dose response, Schnurri-3 inhibitor project, cell-based, Clone20 osteoblasts, cherry-pick, set 2 (AID 720490); assay type: functional;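 further: actives lower the luminescence signal as inhibitors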
A549 = experiment: A549 cell toxicity, dose response, cytotoxicity control, plate reader, cherry-pick samples (AID 687028); assay type: functional, cell-based; details: Homo sapiens
[29] = HeLa cell cytotoxicity, dose response, cytotoxicity control for MgcRacGAP inhibitor project (AID 624300); assay type: functional
Vero = experiment: cells; assay type: functional; details: Chlorocebus sabaeus

T1 sequence (Q00975 whole entry): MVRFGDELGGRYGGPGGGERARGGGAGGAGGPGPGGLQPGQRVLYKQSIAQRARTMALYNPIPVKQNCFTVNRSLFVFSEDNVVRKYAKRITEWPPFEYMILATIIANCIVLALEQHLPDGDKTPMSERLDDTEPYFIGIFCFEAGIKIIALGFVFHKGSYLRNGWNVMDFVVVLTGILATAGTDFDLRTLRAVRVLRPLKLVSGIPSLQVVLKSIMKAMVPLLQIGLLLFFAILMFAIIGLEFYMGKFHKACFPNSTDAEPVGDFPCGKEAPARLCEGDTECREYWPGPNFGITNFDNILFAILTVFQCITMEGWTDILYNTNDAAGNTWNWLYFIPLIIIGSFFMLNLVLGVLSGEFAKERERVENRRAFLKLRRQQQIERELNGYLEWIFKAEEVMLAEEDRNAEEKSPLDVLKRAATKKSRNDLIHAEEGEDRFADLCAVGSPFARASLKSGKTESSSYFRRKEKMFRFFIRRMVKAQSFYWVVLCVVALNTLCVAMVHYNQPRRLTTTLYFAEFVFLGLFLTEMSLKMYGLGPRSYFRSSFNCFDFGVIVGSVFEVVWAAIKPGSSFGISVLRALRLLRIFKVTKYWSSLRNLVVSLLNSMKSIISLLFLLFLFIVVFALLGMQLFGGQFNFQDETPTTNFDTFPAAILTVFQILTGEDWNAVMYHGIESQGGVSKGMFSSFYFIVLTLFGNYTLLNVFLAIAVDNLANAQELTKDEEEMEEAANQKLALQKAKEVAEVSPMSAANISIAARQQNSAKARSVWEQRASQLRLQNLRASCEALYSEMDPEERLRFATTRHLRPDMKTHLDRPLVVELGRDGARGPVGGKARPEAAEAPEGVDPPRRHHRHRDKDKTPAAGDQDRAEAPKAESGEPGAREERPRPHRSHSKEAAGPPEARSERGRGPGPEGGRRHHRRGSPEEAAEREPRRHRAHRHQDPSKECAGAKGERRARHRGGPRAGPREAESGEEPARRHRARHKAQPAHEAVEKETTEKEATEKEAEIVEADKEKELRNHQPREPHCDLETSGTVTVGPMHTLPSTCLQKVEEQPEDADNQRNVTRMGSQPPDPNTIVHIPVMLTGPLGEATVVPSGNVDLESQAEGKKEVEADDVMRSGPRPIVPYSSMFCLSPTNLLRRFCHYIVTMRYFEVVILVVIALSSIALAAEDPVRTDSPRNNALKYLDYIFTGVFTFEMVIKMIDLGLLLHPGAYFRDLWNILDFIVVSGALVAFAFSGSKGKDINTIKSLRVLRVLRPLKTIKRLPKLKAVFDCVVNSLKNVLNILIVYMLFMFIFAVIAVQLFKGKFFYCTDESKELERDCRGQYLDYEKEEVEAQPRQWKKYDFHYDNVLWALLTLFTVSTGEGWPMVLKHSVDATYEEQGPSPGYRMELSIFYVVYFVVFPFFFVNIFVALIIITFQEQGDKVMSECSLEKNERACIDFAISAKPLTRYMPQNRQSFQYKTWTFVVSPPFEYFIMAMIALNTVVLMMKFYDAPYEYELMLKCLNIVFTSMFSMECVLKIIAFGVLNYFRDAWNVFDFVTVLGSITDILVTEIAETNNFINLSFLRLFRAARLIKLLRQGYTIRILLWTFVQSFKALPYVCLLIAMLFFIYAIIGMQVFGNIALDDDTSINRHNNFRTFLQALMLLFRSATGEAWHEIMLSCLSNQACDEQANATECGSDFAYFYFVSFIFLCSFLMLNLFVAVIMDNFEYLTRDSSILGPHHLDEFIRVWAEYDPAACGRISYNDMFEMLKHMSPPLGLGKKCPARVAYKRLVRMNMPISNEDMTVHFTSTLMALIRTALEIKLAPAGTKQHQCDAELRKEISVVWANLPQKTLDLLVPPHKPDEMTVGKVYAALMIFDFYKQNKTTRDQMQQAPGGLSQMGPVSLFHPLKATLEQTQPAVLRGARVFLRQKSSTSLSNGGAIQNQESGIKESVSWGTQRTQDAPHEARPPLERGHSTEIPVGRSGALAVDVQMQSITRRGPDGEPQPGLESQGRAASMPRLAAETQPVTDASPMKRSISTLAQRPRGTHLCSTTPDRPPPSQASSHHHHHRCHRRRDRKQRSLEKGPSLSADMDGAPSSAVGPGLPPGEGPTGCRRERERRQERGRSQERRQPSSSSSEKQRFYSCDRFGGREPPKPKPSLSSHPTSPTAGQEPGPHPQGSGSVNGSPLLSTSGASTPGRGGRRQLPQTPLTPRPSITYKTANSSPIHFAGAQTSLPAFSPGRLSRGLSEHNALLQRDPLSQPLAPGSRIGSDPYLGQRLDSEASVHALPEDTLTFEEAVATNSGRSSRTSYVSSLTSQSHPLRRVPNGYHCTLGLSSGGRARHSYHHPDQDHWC
T1 sequence (Q02410 whole entry): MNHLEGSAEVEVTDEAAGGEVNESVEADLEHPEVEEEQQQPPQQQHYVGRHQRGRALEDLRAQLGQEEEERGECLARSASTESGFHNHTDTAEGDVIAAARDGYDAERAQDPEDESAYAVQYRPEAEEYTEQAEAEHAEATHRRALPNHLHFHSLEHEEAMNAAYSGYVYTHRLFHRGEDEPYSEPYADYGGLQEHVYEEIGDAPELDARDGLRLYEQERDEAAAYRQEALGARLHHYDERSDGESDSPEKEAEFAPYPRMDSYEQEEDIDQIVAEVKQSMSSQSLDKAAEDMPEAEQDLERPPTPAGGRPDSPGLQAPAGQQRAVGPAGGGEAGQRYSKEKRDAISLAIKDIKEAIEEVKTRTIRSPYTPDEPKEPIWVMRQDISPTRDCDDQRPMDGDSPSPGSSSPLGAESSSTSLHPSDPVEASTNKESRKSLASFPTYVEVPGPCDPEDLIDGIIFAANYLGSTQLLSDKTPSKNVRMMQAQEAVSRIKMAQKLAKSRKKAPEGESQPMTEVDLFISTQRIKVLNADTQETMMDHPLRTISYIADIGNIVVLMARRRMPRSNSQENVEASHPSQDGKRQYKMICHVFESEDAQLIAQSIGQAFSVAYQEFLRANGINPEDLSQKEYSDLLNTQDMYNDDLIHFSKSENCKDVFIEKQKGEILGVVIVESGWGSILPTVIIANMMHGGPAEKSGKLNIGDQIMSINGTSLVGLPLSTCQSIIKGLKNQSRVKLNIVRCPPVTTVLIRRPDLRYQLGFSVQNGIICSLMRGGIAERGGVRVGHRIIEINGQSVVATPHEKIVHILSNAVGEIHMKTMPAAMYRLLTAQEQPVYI
Chain of Glucose-6-phosphate 1-dehydrogenase (P11413 whole entry): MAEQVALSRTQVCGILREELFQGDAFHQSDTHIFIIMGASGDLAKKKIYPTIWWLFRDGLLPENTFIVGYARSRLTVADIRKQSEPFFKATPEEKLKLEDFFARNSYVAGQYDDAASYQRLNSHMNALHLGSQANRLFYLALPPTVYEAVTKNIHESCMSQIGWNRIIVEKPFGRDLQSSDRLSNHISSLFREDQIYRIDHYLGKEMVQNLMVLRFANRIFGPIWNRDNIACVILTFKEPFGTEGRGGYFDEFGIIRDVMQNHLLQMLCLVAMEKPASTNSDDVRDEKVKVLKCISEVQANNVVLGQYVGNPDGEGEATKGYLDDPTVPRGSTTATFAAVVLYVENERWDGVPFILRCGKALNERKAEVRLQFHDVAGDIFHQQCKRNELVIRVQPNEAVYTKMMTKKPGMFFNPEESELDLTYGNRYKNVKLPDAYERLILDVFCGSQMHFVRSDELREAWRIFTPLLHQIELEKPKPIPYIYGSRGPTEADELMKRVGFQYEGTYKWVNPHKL
Chain of fMet-Leu-Phe receptor (P21462 whole entry): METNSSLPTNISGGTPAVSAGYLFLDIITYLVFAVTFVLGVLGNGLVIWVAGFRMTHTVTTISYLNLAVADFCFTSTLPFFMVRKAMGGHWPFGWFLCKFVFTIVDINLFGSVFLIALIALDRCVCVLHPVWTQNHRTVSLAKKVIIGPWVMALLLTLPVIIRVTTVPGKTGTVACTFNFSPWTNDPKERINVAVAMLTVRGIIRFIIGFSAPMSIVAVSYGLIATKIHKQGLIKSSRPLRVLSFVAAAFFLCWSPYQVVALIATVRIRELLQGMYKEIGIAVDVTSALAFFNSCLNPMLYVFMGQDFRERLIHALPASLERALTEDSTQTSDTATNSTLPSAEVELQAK
Chain of Long-chain-fatty-acid--AMP ligase FadD28 (P9WQ59 whole entry): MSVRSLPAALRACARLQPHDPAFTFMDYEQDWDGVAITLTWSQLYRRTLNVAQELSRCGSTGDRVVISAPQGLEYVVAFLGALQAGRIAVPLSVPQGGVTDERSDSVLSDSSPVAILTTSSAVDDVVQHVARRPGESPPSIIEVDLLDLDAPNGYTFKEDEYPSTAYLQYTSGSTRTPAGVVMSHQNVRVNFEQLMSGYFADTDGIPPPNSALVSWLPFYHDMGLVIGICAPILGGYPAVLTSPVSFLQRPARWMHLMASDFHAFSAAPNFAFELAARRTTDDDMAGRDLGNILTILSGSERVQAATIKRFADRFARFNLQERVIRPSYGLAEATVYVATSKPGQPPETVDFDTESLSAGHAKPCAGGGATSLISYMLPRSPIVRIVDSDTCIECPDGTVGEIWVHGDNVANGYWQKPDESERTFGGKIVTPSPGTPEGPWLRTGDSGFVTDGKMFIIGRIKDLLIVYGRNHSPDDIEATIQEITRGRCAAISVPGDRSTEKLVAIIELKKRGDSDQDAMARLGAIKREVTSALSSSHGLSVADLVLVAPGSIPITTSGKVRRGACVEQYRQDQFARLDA

Compound: CCCn1nnnc1NCc1ccc(N2CCCC2)cc1
- AC50 [1]: > 160 µM (inactive)

Compound: COc1ccc2ccccc2c1C1CC(=O)N2CN(C3CCCCC3)CSC2=C1C#N (stereo not drawn)
- IC50 [2]: > 50 µM (inactive)
- IC50 [3]: > 80 µM (inactive)
- IC50 [4]: 0.632 µM (active)
- Ki (fMet-Leu-Phe receptor): 19.7 µM (inactive)
- IC50 [5]: > 56.8 µM (not active)
- IC50 [6]: 5.43 µM (active)

Compound: Cc1ccc(-c2noc(-c3ccccc3F)n2)cc1
- AC50 [7]: 26 µM (active)

Compound: CCCN1/C(=C2/SC(=S)N(CC)C2=O)C=Cc2ccccc21
- IC50 [8]: 30.6 µM (inactive)

Compound: Cc1nc2cc(-c3ccccc3)sc2c(=O)n1N
- AC50 [9]: 5.97 µM (active)
- AC50 [10]: 5.13 µM (active)
- EC50 (cells [11]): > 350 µM (not active)
- EC50 (BJ [12]): 2.32 µM (inconclusive)
- AC50 [13]: 5.12 µM (active)
- AC50 [14]: 1.17 µM (active)
- EC50 [15]: 3.78 µM (active)
- EC50 (cells [16]): 7.12 µM (active)
- EC50 (BJ [17]): 12 µM (active)
- EC50 [18]: 0.546 µM (active)
- EC50 [19]: 0.365 µM (active)
- AC50 (INS1): 3.95 µM (active)
- EC50 (BJ [20]): 5.93 µM (active)
- AC50 [21]: 0.868 µM (active)

Compound: N#Cc1ccc(COC(=O)c2ccc(N3CCCC3)c([N+](=O)[O-])c2)cc1
- EC50 [22]: 12 µM (inactive)
- EC50 [23]: 0.45 µM (inactive)

Compound: O=C(NC(NC(=S)N1CCOCC1)C(Cl)(Cl)Cl)c1cccc2ccccc12 (stereo not drawn)
- AC50 [24]: > 100 µM (inactive)

Compound: CC(=O)Nc1ccc(OCC(=O)Nc2ccc(Cl)c(S(=O)(=O)N3CCOCC3)c2)cc1
- AC50 [25]: 9.23 µM (active)
- AC50 [26]: 1.59 µM (active)
- AC50 [27]: 53.5 µM (active)
- AC50 [28]: 3.49 µM (active)

Compound: COc1ccc(-c2cc(NC=O)c3ncc(-c4cc(OC)c(OC)c(OC)c4)n3c2)c(OC)c1
- AC50 (A549): 13.6 µM (active)

Compound: O=[N+]([O-])/C=C/c1cc2ccccc2[nH]1
- CC50 [29]: 94.6 µM (active)
- CC50 (Vero): > 25 µM (active)
